Source: publication PMC7400788, “RAF dimer inhibition enhances the antitumor activity of MEK inhibitors in K‐RAS mutant tumors” (Molecular Oncology, 2020)
Where two headings read alike, the source gives them in different places.

How the values were obtained:
[1] = molecular target: T1, WT C‐RAF (Homo sapiens, UniProt P04049); assay: TR-FRET kinase assay, MEK1 (K97R) substrate; format: biochemical
T1 construct: gene RAF1; overexpressed in HEK293 cells, immunoprecipitated

[2] = molecular target: T2, WT B‐RAF (Homo sapiens, UniProt P15056, V600E); assay: TR-FRET kinase assay, MEK1 (K97R) substrate; format: biochemical
T2 construct: gene BRAF; overexpressed in HEK293 cells, immunoprecipitated
T2 sequence (P15056 2-766 V600E): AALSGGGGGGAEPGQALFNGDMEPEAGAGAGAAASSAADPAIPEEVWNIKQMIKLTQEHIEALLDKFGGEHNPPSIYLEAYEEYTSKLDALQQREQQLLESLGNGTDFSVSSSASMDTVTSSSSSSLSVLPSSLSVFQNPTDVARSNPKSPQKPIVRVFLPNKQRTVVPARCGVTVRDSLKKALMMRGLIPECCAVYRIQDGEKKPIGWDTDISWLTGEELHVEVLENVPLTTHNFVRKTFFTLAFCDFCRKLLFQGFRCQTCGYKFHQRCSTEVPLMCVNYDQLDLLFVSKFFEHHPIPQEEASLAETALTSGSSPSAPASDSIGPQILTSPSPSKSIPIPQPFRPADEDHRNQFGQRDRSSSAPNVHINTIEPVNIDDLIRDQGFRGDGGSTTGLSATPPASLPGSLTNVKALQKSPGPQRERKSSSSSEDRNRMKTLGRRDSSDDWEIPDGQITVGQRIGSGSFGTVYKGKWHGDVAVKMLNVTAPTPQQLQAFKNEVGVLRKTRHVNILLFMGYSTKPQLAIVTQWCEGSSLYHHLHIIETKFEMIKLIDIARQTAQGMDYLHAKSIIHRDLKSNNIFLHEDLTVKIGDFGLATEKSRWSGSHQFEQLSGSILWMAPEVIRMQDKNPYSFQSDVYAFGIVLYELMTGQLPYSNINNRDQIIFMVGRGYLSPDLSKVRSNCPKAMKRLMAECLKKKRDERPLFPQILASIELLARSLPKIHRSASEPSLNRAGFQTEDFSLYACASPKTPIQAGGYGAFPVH

[3] = molecular target: T3, WT B‐RAF (Homo sapiens, UniProt P15056); assay: TR-FRET kinase assay, MEK1 (K97R) substrate; format: biochemical
T3 construct: gene BRAF; overexpressed in HEK293 cells, immunoprecipitated
T3 sequence (P15056 2-766): as the sequence (P15056 2-766 V600E) above, with E599V counted along it

[4] = molecular target: EGFR (Homo sapiens, UniProt P00533); assay: biochemical kinase assay (details not told)
EGFR, sequence (P00533 25-1210): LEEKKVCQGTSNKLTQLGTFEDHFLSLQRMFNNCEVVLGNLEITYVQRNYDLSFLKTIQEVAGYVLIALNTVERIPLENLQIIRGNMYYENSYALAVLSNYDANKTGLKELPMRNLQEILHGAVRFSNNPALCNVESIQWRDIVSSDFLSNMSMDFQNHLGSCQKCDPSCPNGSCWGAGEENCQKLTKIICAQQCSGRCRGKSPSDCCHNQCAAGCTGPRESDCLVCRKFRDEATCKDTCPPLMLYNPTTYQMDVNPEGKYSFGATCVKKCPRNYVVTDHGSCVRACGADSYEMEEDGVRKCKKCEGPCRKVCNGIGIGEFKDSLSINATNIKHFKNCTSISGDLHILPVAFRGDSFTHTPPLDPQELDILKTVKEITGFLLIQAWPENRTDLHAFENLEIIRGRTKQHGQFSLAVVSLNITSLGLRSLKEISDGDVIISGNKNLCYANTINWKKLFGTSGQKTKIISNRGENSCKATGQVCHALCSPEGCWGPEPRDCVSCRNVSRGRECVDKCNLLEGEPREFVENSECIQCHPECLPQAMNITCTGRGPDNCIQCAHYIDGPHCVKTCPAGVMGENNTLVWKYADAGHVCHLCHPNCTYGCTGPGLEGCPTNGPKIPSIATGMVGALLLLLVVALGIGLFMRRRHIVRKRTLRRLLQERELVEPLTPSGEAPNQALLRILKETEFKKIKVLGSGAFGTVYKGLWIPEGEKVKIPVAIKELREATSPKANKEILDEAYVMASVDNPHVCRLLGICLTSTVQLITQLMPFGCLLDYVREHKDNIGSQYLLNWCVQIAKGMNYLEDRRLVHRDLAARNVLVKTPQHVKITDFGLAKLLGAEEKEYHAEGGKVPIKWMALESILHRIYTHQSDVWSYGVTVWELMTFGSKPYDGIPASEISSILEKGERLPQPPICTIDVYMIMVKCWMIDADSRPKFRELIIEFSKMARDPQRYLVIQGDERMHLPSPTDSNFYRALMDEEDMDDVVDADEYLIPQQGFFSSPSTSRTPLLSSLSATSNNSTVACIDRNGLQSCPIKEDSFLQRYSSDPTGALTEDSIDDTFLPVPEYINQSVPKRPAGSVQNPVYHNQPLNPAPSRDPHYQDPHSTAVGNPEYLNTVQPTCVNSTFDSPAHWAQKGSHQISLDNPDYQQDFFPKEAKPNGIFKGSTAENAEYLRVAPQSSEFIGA
Text: biochemical kinase assay (details not told) on EGFR | Biochemical activity of compound C against WT B‐RAF, B‐RAF^V600E, C‐RAF, and EGFR

[5] = read-out: BGB-283 IC50 (nM) / 1 h
[6] = 1 mM ATP, 1 h pre-incubation, room temperature, time-dependent inhibition (6 h and 24 h pre-incubation also tested), read-out: Compound C IC50 (nM) / 1 h

T1 sequence (P04049 whole entry): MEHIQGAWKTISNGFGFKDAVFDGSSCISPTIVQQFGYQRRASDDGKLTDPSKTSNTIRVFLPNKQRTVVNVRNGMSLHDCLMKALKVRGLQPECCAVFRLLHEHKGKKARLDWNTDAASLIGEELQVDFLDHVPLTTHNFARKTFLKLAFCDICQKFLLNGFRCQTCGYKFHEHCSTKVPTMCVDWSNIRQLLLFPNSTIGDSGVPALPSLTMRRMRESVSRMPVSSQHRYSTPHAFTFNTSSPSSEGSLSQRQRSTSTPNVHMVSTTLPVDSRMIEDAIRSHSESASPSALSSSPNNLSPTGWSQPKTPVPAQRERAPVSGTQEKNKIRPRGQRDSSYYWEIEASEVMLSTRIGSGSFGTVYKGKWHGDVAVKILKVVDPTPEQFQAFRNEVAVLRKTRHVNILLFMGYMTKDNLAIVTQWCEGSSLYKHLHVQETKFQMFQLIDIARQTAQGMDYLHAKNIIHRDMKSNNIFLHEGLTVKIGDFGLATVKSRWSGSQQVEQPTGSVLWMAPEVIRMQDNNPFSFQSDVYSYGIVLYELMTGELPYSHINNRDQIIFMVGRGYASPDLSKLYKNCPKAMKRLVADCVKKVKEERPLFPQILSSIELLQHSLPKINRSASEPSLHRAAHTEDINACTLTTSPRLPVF

IC50 [1, 5] [nM] | IC50 [2, 5] [nM] | IC50 [3, 5] [nM] | IC50 [1, 6] [nM] | IC50 [2, 6] [nM] | IC50 [3, 6] [nM] | IC50 [4] [µM] | SMILES
122 | 49 | 2310 | – | – | – | – | O=C1CCc2c(Oc3ccc4c(c3)[C@@H]3[C@H](O4)[C@H]3c3nc4ccc(C(F)(F)F)cc4[nH]3)ccnc2N1 [BGB‐283]
– | – | – | 2.4 | 1.6 | 24 | 1.27 | c1cc(-c2cnn3cc(-c4ccc(OCCN5CCCCC5)cc4)cnc23)ccn1 [compound C]
